Source: PubChem BioAssay AID2060888 (Molecular Pharmacology Branch, DTP, NCI, 2025)
pIC50: −log10 of the molar value. “And” between values parts separate entries of the source, which are not always exact repeats. Equal values may be shown once. Each block holds one compound with its values, some of them ahead of it.

System: 695427-040-R-J1-PDC complex spheroid viability
Test: Anticancer human tumor 695427-040-R-J1-PDC patient-derived colon adenocarcinoma cell line growth inhibition [RAS]
Settings: for viability, T/C: stronger effect = lower value
In short: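 Tumour cells grown as complex spheroids with HUVEC endothelial cells and mesenchymal stem cells, treated with RAS pathway inhibitor combinations. Each agent spans half-log steps from near clinical Cmax, or 10 microM where Cmax is unknown.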

[1] = curve of first compound, second compound 0.000949 µM
[2] = curve of first compound, second compound 0.003 µM
[3] = curve of first compound, second compound 0.00949 µM
[4] = curve of first compound, second compound 0.03 µM
[5] = curve of first compound, second compound 0.0949 µM
[6] = curve of first compound, second compound 0.3 µM
[7] = second compound 0.000949 µM, first compound 0.00316 µM
[8] = second compound 0.000949 µM, first compound 0.01 µM
[9] = second compound 0.000949 µM, first compound 0.0316 µM
[10] = second compound 0.000949 µM, first compound 0.1 µM
[11] = second compound 0.000949 µM, first compound 0.316 µM
[12] = second compound 0.000949 µM, first compound 1 µM
[13] = second compound 0.003 µM, first compound 0.00316 µM
[14] = second compound 0.003 µM, first compound 0.01 µM
[15] = second compound 0.003 µM, first compound 0.0316 µM
[16] = second compound 0.003 µM, first compound 0.1 µM
[17] = second compound 0.003 µM, first compound 0.316 µM
[18] = second compound 0.003 µM, first compound 1 µM
[19] = second compound 0.00949 µM, first compound 0.00316 µM
[20] = second compound 0.00949 µM, first compound 0.01 µM
[21] = second compound 0.00949 µM, first compound 0.0316 µM
[22] = second compound 0.00949 µM, first compound 0.1 µM
[23] = second compound 0.00949 µM, first compound 0.316 µM
[24] = second compound 0.00949 µM, first compound 1 µM
[25] = second compound 0.03 µM, first compound 0.00316 µM
[26] = second compound 0.03 µM, first compound 0.01 µM
[27] = second compound 0.03 µM, first compound 0.0316 µM
[28] = second compound 0.03 µM, first compound 0.1 µM
[29] = second compound 0.03 µM, first compound 0.316 µM
[30] = second compound 0.03 µM, first compound 1 µM
[31] = second compound 0.0949 µM, first compound 0.00316 µM
[32] = second compound 0.0949 µM, first compound 0.01 µM
[33] = second compound 0.0949 µM, first compound 0.0316 µM
[34] = second compound 0.0949 µM, first compound 0.1 µM
[35] = second compound 0.0949 µM, first compound 0.316 µM
[36] = second compound 0.0949 µM, first compound 1 µM
[37] = second compound 0.3 µM, first compound 0.00316 µM
[38] = second compound 0.3 µM, first compound 0.01 µM
[39] = second compound 0.3 µM, first compound 0.0316 µM
[40] = second compound 0.3 µM, first compound 0.1 µM
[41] = second compound 0.3 µM, first compound 0.316 µM
[42] = second compound 0.3 µM, first compound 1 µM
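Also: viability read after seven days of drug exposure.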
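For viability, T/C in this document: 100% = DMSO vehicle control viability.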

pIC50 [1]: 6.95
pIC50 [2]: 6.88
pIC50 [3]: 7.31
pIC50 [4]: 7.16
pIC50 [5]: 7.10
pIC50 [6]: 7.02
SMILES: CCc1c2c(nc3ccc(O)cc13)-c1cc3c(c(=O)n1C2)COC(=O)[C@]3(O)CC + CCn1c(-c2cccnc2C(C)OC)c2c3cc(ccc31)N1CCOC(CC(NC(=O)C(C(C)C)N(C)C(=O)C3(F)CCN(C(=O)C#CC(C)(C)N(C)C)CC3)C(=O)N3CCCC(N3)C(=O)OCC(C)(C)C2)C1
viability, T/C (second compound 0.000949 µM, first compound 0.000949 µM): 97.1%
viability, T/C (second compound 0.000949 µM, first compound 0.003 µM): 93.3%
viability, T/C (second compound 0.000949 µM, first compound 0.00949 µM): 84.2%
viability, T/C (second compound 0.000949 µM, first compound 0.03 µM): 61.5%
viability, T/C (second compound 0.000949 µM, first compound 0.0949 µM): 56.7%
viability, T/C (second compound 0.000949 µM, first compound 0.3 µM): 37.7%
viability, T/C (second compound 0.003 µM, first compound 0.000949 µM): 91.7%
viability, T/C (second compound 0.003 µM, first compound 0.003 µM): 84.6%
viability, T/C (second compound 0.003 µM, first compound 0.00949 µM): 66.1%
viability, T/C (second compound 0.003 µM, first compound 0.03 µM): 64.1%
viability, T/C (second compound 0.003 µM, first compound 0.0949 µM): 53%
viability, T/C (second compound 0.003 µM, first compound 0.3 µM): 43.1%
viability, T/C (second compound 0.00949 µM, first compound 0.000949 µM): 98.3%
viability, T/C (second compound 0.00949 µM, first compound 0.003 µM): 76.8%
viability, T/C (second compound 0.00949 µM, first compound 0.00949 µM): 65.8%
viability, T/C (second compound 0.00949 µM, first compound 0.03 µM): 63.4%
viability, T/C (second compound 0.00949 µM, first compound 0.0949 µM): 36.5%
viability, T/C (second compound 0.00949 µM, first compound 0.3 µM): 35.8%
viability, T/C (second compound 0.03 µM, first compound 0.000949 µM): 79.8%
viability, T/C (second compound 0.03 µM, first compound 0.003 µM): 96.4%
viability, T/C (second compound 0.03 µM, first compound 0.00949 µM): 80.1%
viability, T/C (second compound 0.03 µM, first compound 0.03 µM): 71.6%
viability, T/C (second compound 0.03 µM, first compound 0.0949 µM): 41.7%
viability, T/C (second compound 0.03 µM, first compound 0.3 µM): 31.5%
viability, T/C (second compound 0.0949 µM, first compound 0.000949 µM): 87.3%
viability, T/C (second compound 0.0949 µM, first compound 0.003 µM): 79.5%
viability, T/C (second compound 0.0949 µM, first compound 0.00949 µM): 81.6%
viability, T/C (second compound 0.0949 µM, first compound 0.03 µM): 49.7%
viability, T/C (second compound 0.0949 µM, first compound 0.0949 µM): 57%
viability, T/C (second compound 0.0949 µM, first compound 0.3 µM): 24.2%
viability, T/C (second compound 0.3 µM, first compound 0.000949 µM): 82.7%
viability, T/C (second compound 0.3 µM, first compound 0.003 µM): 101%
viability, T/C (second compound 0.3 µM, first compound 0.00949 µM): 69.7%
viability, T/C (second compound 0.3 µM, first compound 0.03 µM): 58.8%
viability, T/C (second compound 0.3 µM, first compound 0.0949 µM): 57%
viability, T/C (second compound 0.3 µM, first compound 0.3 µM): 31.2%

pIC50 [1]: 7.09
pIC50 [2]: 7.07
pIC50 [3]: 7.10
pIC50 [4]: 7.17
pIC50 [5]: 7.18
pIC50 [6]: 7.45
SMILES: O=C(c1ccc(F)c(F)c1Nc1ccc(I)cc1F)N1CC(O)([C@@H]2CCCCN2)C1 + CCn1c(-c2cccnc2C(C)OC)c2c3cc(ccc31)N1CCOC(CC(NC(=O)C(C(C)C)N(C)C(=O)C3(F)CCN(C(=O)C#CC(C)(C)N(C)C)CC3)C(=O)N3CCCC(N3)C(=O)OCC(C)(C)C2)C1
viability, T/C [7]: 71.6%
viability, T/C [8]: 85.1%
viability, T/C [9]: 71%
viability, T/C [10]: 44.4%
viability, T/C [11]: 19.4%
viability, T/C [12]: 9.33%
viability, T/C [13]: 91.1%
viability, T/C [14]: 88.8%
viability, T/C [15]: 66.6%
viability, T/C [16]: 51.4%
viability, T/C [17]: 17.6%
viability, T/C [18]: 6.84%
viability, T/C [19]: 88.6%
viability, T/C [20]: 67.5%
viability, T/C [21]: 69.9%
viability, T/C [22]: 48.1%
viability, T/C [23]: 22.3%
viability, T/C [24]: 9.42%
viability, T/C [25]: 105%
viability, T/C [26]: 80.2%
viability, T/C [27]: 66.3%
viability, T/C [28]: 42.9%
viability, T/C [29]: 22.1%
viability, T/C [30]: 7.71%
viability, T/C [31]: 81.5%
viability, T/C [32]: 84%
viability, T/C [33]: 60.6%
viability, T/C [34]: 43.1%
viability, T/C [35]: 20.8%
viability, T/C [36]: 7.03%
viability, T/C [37]: 73.4%
viability, T/C [38]: 65.5%
viability, T/C [39]: 47%
viability, T/C [40]: 42%
viability, T/C [41]: 19.2%
viability, T/C [42]: 6.79%

pIC50 (curve of compound): < 6.00
SMILES: CCN1CCN(Cc2ccc(Nc3ncc(F)c(-c4cc(F)c5nc(C)n(C(C)C)c5c4)n3)nc2)CC1
viability, T/C (compound 0.00316 µM): 102% [middle of 4 runs]
viability, T/C (compound 0.01 µM): 84.3% [middle of 4 runs]
viability, T/C (compound 0.0316 µM): 92.2% [middle of 4 runs]
viability, T/C (compound 0.1 µM): 102% [middle of 4 runs]
viability, T/C (compound 0.316 µM): 98.7% [middle of 4 runs]

pIC50 (curve of compound): < 7.00 and 7.22
SMILES: CC(C)n1nc(-c2ccc3oc(N)nc3c2)c2c(N)ncnc21
viability, T/C (compound 0.000316 µM): 101% [middle of 4 runs]
viability, T/C (compound 0.001 µM): 99.3% [middle of 4 runs]
viability, T/C (compound 0.00316 µM): 91.7% [middle of 4 runs]
viability, T/C (compound 0.01 µM): 81.6% [middle of 4 runs]
viability, T/C (compound 0.0316 µM): 73.5% [middle of 4 runs]
viability, T/C (compound 0.1 µM): 61.9% [middle of 4 runs]

pIC50 [1]: 6.26
pIC50 [2]: 6.24
pIC50 [3]: 6.34
pIC50 [4]: 6.22
pIC50 [5]: 6.28
pIC50 [6]: 6.54
SMILES: C=CC(=O)Nc1cc(Nc2nccc(-c3cn(C)c4ccccc34)n2)c(OC)cc1N(C)CCN(C)C + CCn1c(-c2cccnc2C(C)OC)c2c3cc(ccc31)N1CCOC(CC(NC(=O)C(C(C)C)N(C)C(=O)C3(F)CCN(C(=O)C#CC(C)(C)N(C)C)CC3)C(=O)N3CCCC(N3)C(=O)OCC(C)(C)C2)C1
viability, T/C [7]: 85.2%
viability, T/C [8]: 80.6%
viability, T/C [9]: 73.5%
viability, T/C [10]: 100%
viability, T/C [11]: 60.9%
viability, T/C [12]: 38.5%
viability, T/C [13]: 91.3%
viability, T/C [14]: 83.4%
viability, T/C [15]: 95.2%
viability, T/C [16]: 114%
viability, T/C [17]: 59.7%
viability, T/C [18]: 40.8%
viability, T/C [19]: 94.1%
viability, T/C [20]: 70.7%
viability, T/C [21]: 87.6%
viability, T/C [22]: 82.2%
viability, T/C [23]: 56.3%
viability, T/C [24]: 36.1%
viability, T/C [25]: 80.9%
viability, T/C [26]: 88%
viability, T/C [27]: 84.5%
viability, T/C [28]: 73%
viability, T/C [29]: 60.6%
viability, T/C [30]: 42.1%
viability, T/C [31]: 106%
viability, T/C [32]: 83.3%
viability, T/C [33]: 84.5%
viability, T/C [34]: 80.2%
viability, T/C [35]: 67.7%
viability, T/C [36]: 31.5%
viability, T/C [37]: 74.5%
viability, T/C [38]: 74.9%
viability, T/C [39]: 85.7%
viability, T/C [40]: 52.8%
viability, T/C [41]: 54.2%
viability, T/C [42]: 32.3%

IC50 (compound alone, run of 06/10/2024): 6.3 µM [middle of 8 runs]
SMILES: C#Cc1c(F)ccc2cc(O)cc(-c3ncc4c(N5CC6CCC(C5)N6)nc(OCC56CCCN5CC(F)C6)nc4c3F)c12 (stereo unspecified)
viability, T/C (compound 0.0316 µM): 99.3% [middle of 8 runs]
viability, T/C (compound 0.1 µM): 95.3% [middle of 8 runs]
viability, T/C (compound 0.316 µM): 89.5% [middle of 8 runs]
viability, T/C (compound 1 µM): 73.6% [middle of 8 runs]
viability, T/C (compound 3.16 µM): 62.1% [middle of 8 runs]
viability, T/C (compound 10 µM): 42.7% [middle of 8 runs]
